Measurements as given in ChEMBL document CHEMBL3885881, “DrugMatrix”.

Organism: Rattus norvegicus
Experiment: DrugMatrix - Regimen: Daily Repeat
Format: toxicity, organism-based, Sprague-Dawley
Set-up: regimen Daily Repeat, gender Male, age 6-8 weeks
Settings: in vivo, po, 739 mg/kg, route oral GAVAGE, dose level High, vehicle 100 % WATER; for ABSOLUTE BASOPHIL / ABSOLUTE EOSINOPHIL / ABSOLUTE LYMPHOCYTE / ABSOLUTE MONOCYTE / ABSOLUTE SEGMENTED NEUTROPHIL / BASOPHIL / EOSINOPHIL / ERYTHROCYTE COUNT / HEMATOCRIT / HEMOGLOBIN / LEUKOCYTE COUNT / LYMPHOCYTE / MEAN CORPUSCULAR HEMOGLOBIN / MEAN CORPUSCULAR HEMOGLOBIN CONCENTRATION / MEAN CORPUSCULAR VOLUME / MONOCYTE / NEUTROPHIL / NUCLEATED RED BLOOD CELLS / PLATELET COUNT: tissue Blood; for ALANINE AMINOTRANSFERASE / ALBUMIN / ALKALINE PHOSPHATASE / ASPARTATE AMINOTRANSFERASE / BLOOD UREA NITROGEN / CARBON DIOXIDE / CHLORIDE / CHOLESTEROL / CREATINE PHOSPHOKINASE / CREATININE / GLUCOSE / LACTATE DEHYDROGENASE / LIPASE / PHOSPHORUS / POTASSIUM / SODIUM / TOTAL BILIRUBIN / TOTAL PROTEIN / URIC ACID: tissue Plasma

## C[C@H]1COc2c(N3CCN(C)CC3)c(F)cc3c(=O)c(C(=O)O)cn1c23.C[C@H]1COc2c(N3CCN(C)CC3)c(F)cc3c(=O)c(C(=O)O)cn1c23.O [LEVOFLOXACIN]
72 h, time 3 day
  ABSOLUTE BASOPHIL: 0 CELLS/uL
  ABSOLUTE EOSINOPHIL: 60.67 CELLS/uL
  ABSOLUTE LYMPHOCYTE: 15481 CELLS/uL
  ABSOLUTE MONOCYTE: 289.33 CELLS/uL
  ABSOLUTE SEGMENTED NEUTROPHIL: 1169 CELLS/uL
  BASOPHIL: 0%
  EOSINOPHIL: 0.33%
  ERYTHROCYTE COUNT: 5.52 x10E6/uL
  HEMATOCRIT: 35.23%
  HEMOGLOBIN: 13.27 G/DL
  LEUKOCYTE COUNT: 17 x10E3/uL
  LYMPHOCYTE: 91%
  MEAN CORPUSCULAR HEMOGLOBIN: 24.03 pg
  MEAN CORPUSCULAR HEMOGLOBIN CONCENTRATION: 37.67 G/DL
  MEAN CORPUSCULAR VOLUME: 63.8 fL
  MONOCYTE: 1.67%
  NEUTROPHIL: 7%
  NUCLEATED RED BLOOD CELLS: 0 /100WBC
  PLATELET COUNT: 1423.67 x10E3/uL
  ALANINE AMINOTRANSFERASE: 46.33 u/L
  ALBUMIN: 4.1 G/DL
  ALKALINE PHOSPHATASE: 308 u/L
  ASPARTATE AMINOTRANSFERASE: 72.67 u/L
  BLOOD UREA NITROGEN: 16.33 mg/dL
  CARBON DIOXIDE: 26.67 mmol/L
  CHLORIDE: 104.33 MEQ/L
  CHOLESTEROL: 82.33 mg/dL
  CREATINE PHOSPHOKINASE: 201.67 u/L
  CREATININE: 0.14 mg/dL
  GLUCOSE: 154.33 mg/dL
  LACTATE DEHYDROGENASE: 124 u/L
  LIPASE: 8.67 u/L
  PHOSPHORUS: 11.47 mg/dL
  POTASSIUM: 6.3 MEQ/L
  SODIUM: 146.37 MEQ/L
  TOTAL BILIRUBIN: 0.17 mg/dL
  TOTAL PROTEIN: 5.97 G/DL
  URIC ACID: 1.7 mg/dL
120 h, time 5 day
  ABSOLUTE BASOPHIL: 0 CELLS/uL
  ABSOLUTE EOSINOPHIL: 0 CELLS/uL
  ABSOLUTE LYMPHOCYTE: 15118 CELLS/uL
  ABSOLUTE MONOCYTE: 376 CELLS/uL
  ABSOLUTE SEGMENTED NEUTROPHIL: 706 CELLS/uL
  BASOPHIL: 0%
  EOSINOPHIL: 0%
  ERYTHROCYTE COUNT: 6.32 x10E6/uL
  HEMATOCRIT: 38.53%
  HEMOGLOBIN: 14.33 G/DL
  LEUKOCYTE COUNT: 16.2 x10E3/uL
  LYMPHOCYTE: 93.33%
  MEAN CORPUSCULAR HEMOGLOBIN: 22.7 pg
  MEAN CORPUSCULAR HEMOGLOBIN CONCENTRATION: 37.2 G/DL
  MEAN CORPUSCULAR VOLUME: 61.03 fL
  MONOCYTE: 2.33%
  NEUTROPHIL: 4.33%
  NUCLEATED RED BLOOD CELLS: 0.33 /100WBC
  PLATELET COUNT: 1446 x10E3/uL
  ALANINE AMINOTRANSFERASE: 51.67 u/L
  ALBUMIN: 4.27 G/DL
  ALKALINE PHOSPHATASE: 400 u/L
  ASPARTATE AMINOTRANSFERASE: 69.33 u/L
  BLOOD UREA NITROGEN: 16.33 mg/dL
  CARBON DIOXIDE: 25.67 mmol/L
  CHLORIDE: 105.33 MEQ/L
  CHOLESTEROL: 69.67 mg/dL
  CREATINE PHOSPHOKINASE: 212 u/L
  CREATININE: 0.19 mg/dL
  GLUCOSE: 191.33 mg/dL
  LACTATE DEHYDROGENASE: 130.33 u/L
  LIPASE: 9 u/L
  PHOSPHORUS: 14.27 mg/dL
  POTASSIUM: 6.6 MEQ/L
  SODIUM: 147.87 MEQ/L
  TOTAL BILIRUBIN: 0.17 mg/dL
  TOTAL PROTEIN: 6.23 G/DL
  URIC ACID: 2.37 mg/dL
